Drawing on PMC4348537, “Discovery of Novel New Delhi Metallo-β-Lactamases-1 Inhibitors by Multistep Virtual Screening” (PLoS ONE, 2015), this text covers Km and IC50 for four compounds.

Assay [1] addresses T1, NDM-1 (New Delhi metallo-β-lactamase-1) (Klebsiella pneumoniae, UniProt C7C422).
T1 construct: gene blaNDM-1
Nature of the assay: steady-state hydrolysis kinetics at […] nm, Km by Lineweaver-Burk plot. It is filed as biochemical.

The target of assay [2] is T1, NDM-1 (New Delhi metallo-β-lactamase-1). Nature of the assay: nitrocefin hydrolysis assay with purified enzyme, dose-response; similar with […] Triton X-100. It is filed as biochemical.

T1 sequence (C7C422 29-270 limits assumed): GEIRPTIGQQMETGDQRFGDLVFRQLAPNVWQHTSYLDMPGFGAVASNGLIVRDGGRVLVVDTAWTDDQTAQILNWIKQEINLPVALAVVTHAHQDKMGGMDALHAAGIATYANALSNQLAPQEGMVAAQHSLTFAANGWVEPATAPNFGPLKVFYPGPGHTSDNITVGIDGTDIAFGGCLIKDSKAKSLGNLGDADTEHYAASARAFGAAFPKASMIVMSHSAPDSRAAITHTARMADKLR

As usually defined, the Km is the substrate concentration at which the rate is half of its maximum. As to `O=C(Cc1cccs1)N[C@@H]1C(=O)N2C(C(=O)O)=C(/C=C/c3ccc([N+](=O)[O-])cc3[N+](=O)[O-])CS[C@H]12` [nitrocefin], in assay [1], the Michaelis-Menten constant (Km) amounted to 9.54 ± 0.43 µM. The term IC50 denotes the concentration needed to halve the response being measured. A higher IC50 goes with weaker potency. As to `CCOc1ccc(S(=O)(=O)N2CCN(c3cc(Nc4ccc(C)cc4)nc(C)n3)CC2)cc1` [VNI-34], in assay [2], the IC50 came to 31.4 ± 1.2 µM. As for `O=C(Nc1cccc2ccccc12)C1CCN(S(=O)(=O)c2cccc3nonc23)CC1` [VNI-41], 29.6 ± 1.3 µM corresponded to half-maximal inhibition in assay [2] (IC50). The same measure, in the same setting: as for `Cc1cc(C)c(NC(=O)CSc2ncc3c(n2)-c2ccc(Cl)cc2N(C)S3(=O)=O)c(C)c1` [VNI-24], the figure is 37.6 ± 0.9 µM.
